Test: xn = mol fraction of the nth substance listed
Details: Liquid, linear displacement

COc1cnccn1 [methoxypyrazine] + O=C=O
Details	mass density [kg/m3]
294.35 K, x1 = 0.107	802
294.55 K, x1 = 0.129	922
295.15 K, x1 = 0.069	809
295.15 K, x1 = 0.919	1033
295.25 K, x1 = 0.015	726
295.25 K, x1 = 0.039	780
295.75 K, x1 = 0.207	911
295.75 K, x1 = 0.379	929
296.35 K, x1 = 0.025	797
296.85 K, x1 = 0.232	981
297.15 K, x1 = 0.919	1109
298.15 K, x1 = 0.379	934
299.55 K, x1 = 0.015	749
299.95 K, x1 = 0.919	1063
303.35 K, x1 = 0.025	778
303.75 K, x1 = 0.015	718
304.35 K, x1 = 0.007	679
305.95 K, x1 = 0.919	1097
306.95 K, x1 = 0.207	945
307.15 K, x1 = 0.069	843
307.55 K, x1 = 0.129	920
307.95 K, x1 = 0.039	778
310.65 K, x1 = 0.107	860
311.95 K, x1 = 0.637	1122
312.55 K, x1 = 0.379	1012
313.55 K, x1 = 0.025	696
314.15 K, x1 = 0.232	987
317.85 K, x1 = 0.919	1085
326.85 K, x1 = 0.129	864
328.45 K, x1 = 0.207	906
330.65 K, x1 = 0.379	982
332.45 K, x1 = 0.232	948
332.65 K, x1 = 0.637	1097
332.65 K, x1 = 0.919	1063
332.85 K, x1 = 0.107	794
348.55 K, x1 = 0.207	866
348.65 K, x1 = 0.379	958
348.95 K, x1 = 0.919	1050
354.15 K, x1 = 0.232	902
354.35 K, x1 = 0.637	1070
366.45 K, x1 = 0.379	933
367.35 K, x1 = 0.637	1055
367.65 K, x1 = 0.207	824
368.95 K, x1 = 0.232	864

From the NIST ThermoML archive (doi:10.1021/je0601457)
